Consider five compounds from patent publication US20090247559A1 (Exelixis, Inc., priority 2007, published 2009).

The structures appear in SMILES notation. Read-outs that look alike come from different tables or passages of the source. Bounds are passed on as bounds.

One assay deals with CDC7 (Homo sapiens, UniProt O00311). Nature of the assay: CDC7 inhibition, biochemical chemiluminescence assay (Kinase Glo, IC50 determination). In short, it runs like this: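 CDC7 enzyme preincubated with compound 10 min at ambient temperature, then ATP mix in Tris Base added; reaction 90 min at 24-27 °C. Remaining ATP quantified by Kinase Glo luminescence to give IC50.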
A general note: In Kinase-Glo more light means more ATP remaining.

Assay [1] deals with PIM (PIM-1, PIM-2, and/or PIM-3). Nature of the assay: PIM-1, PIM-2 and PIM-3 inhibition, biochemical chemiluminescence assays (Kinase Glo, IC50 determination). As to conditions: Table 1 activity class; PIM refers to PIM-1, PIM-2, and/or PIM-3; read-out: PIM IC50 (Activity B).
A further assay has as its target CK2 (Homo sapiens, UniProt P68400). Put plainly: CK2 inhibition, biochemical chemiluminescence holoenzyme assay (Kinase Glo, IC50 determination). As to conditions: Table 1 activity class; symbol given only if active; read-out: CK2 IC50 (Activity C). The procedure, abridged: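 Holoenzyme CK2 assay; compounds pre-incubated with substrate and enzyme, then reacted 150 min at 24-27° C. Remaining ATP measured as luminescence with Kinase Glo, and IC50 derived from the signal.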

The mark [2] stands for this setting: Table 1 activity class, symbol given only if active, read-out: CDC7 IC50 (Activity A).
The mark [3] stands for this setting: compounds in Table 1, read-out: CDC7 IC50 value.

CK2, sequence (P68400 whole entry): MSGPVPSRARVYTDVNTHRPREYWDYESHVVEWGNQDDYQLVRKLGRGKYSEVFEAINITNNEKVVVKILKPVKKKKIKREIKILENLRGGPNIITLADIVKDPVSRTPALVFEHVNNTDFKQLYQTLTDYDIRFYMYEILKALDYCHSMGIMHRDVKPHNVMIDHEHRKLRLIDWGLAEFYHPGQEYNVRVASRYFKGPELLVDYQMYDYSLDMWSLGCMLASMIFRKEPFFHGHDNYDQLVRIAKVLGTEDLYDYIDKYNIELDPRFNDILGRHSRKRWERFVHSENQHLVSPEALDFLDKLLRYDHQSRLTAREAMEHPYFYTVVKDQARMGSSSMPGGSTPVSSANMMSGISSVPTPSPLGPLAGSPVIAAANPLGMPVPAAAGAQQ
CK2, sequence (P67870 whole entry partner): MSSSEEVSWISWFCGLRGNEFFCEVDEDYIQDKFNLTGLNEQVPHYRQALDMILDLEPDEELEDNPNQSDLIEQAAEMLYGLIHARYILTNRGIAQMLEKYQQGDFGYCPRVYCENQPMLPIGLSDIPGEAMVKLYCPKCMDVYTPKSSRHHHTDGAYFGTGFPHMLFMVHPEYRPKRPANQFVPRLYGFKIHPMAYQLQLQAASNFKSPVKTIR
CDC7, sequence (O00311 whole entry): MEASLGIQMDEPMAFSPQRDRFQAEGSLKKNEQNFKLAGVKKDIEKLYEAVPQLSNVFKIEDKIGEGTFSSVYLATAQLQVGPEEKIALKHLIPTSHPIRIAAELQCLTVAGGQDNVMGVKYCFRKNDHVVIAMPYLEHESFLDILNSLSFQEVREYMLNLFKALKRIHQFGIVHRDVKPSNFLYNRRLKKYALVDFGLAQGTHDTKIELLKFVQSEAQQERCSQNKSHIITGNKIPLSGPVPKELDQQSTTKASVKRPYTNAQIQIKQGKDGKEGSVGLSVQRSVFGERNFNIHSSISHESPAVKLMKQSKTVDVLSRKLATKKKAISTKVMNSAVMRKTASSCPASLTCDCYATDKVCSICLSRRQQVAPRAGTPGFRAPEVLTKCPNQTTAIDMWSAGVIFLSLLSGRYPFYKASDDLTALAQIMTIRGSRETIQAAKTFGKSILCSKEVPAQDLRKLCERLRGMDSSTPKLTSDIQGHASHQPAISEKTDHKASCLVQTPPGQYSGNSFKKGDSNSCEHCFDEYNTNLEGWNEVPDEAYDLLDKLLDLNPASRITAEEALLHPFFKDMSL
CDC7, sequence (Q9UBU7 whole entry partner): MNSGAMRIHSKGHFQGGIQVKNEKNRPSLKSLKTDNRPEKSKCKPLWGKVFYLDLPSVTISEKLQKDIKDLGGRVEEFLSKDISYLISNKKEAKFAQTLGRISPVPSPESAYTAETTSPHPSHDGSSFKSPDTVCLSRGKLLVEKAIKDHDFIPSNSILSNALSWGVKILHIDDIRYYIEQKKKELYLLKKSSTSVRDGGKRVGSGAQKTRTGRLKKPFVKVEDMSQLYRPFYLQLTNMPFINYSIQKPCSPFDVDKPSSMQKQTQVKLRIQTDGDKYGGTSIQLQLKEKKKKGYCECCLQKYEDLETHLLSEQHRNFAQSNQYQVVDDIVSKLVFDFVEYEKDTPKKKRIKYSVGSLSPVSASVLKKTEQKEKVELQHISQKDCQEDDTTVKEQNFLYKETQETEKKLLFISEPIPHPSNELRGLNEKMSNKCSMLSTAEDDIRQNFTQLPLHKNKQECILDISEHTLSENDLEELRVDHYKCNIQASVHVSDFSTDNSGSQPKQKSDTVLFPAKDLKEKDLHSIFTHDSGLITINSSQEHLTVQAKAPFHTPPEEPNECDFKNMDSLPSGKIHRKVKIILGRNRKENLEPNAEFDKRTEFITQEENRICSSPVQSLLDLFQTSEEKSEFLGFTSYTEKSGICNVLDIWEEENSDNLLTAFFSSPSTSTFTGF

As a reminder, the IC50 is the point on the concentration scale where inhibition reaches its midpoint. Consider `Cc1nccn1Cc1nc2c(oc3ccc(Br)cc32)c(=O)[nH]1` [Compound 100, 8-bromo-2-[(2-methyl-1H-imidazol-1-yl)methyl][1]benzofuro[3,2-d]pyrimidin-4(3H)-one], for which the IC50 (at CDC7 (setting [2]); in assay [1]; at CK2) was under 10 µM in each case.

With `O=c1[nH]c(N2CCOCC2)nc2c1oc1ccc(Br)cc12` [Compound 147, 8-bromo-2-morpholin-4-yl[1]benzofuro[3,2-d]pyrimidin-4(3H)-one], the IC50 was under 10 µM on CDC7 (setting [2]), under 0.1 µM at CDC7 (setting [3]), under 10 µM in assay [1] and under 10 µM on CK2.

`CC1CCN(Cc2nc3c(oc4ccc(Br)cc43)c(=O)[nH]2)CC1` [Compound 201, 8-bromo-2-[(4-methylpiperidin-1-yl)methyl][1]benzofuro[3,2-d]pyrimidin-4(3H)-one]: the IC50 is under 10 µM at CDC7 (setting [2]), under 0.1 µM on CDC7 (setting [3]), under 10 µM in assay [1] and under 10 µM on CK2.

As for `O=c1[nH]c(-c2ccc(NCCC3CCCNC3)cc2Cl)nc2c1oc1ccc(Br)cc12` (stereo not drawn) [Compound 155, 8-bromo-2-{2-chloro-4-[(2-piperidin-3-ylethyl)amino]phenyl}[1]benzofuro[3,2-d]pyrimidin-4(3H)-one], the IC50 (at CDC7 (setting [2]); in assay [1]; at CK2) was under 10 µM in each case.

On to `O=c1[nH]c([C@@H]2CC(F)(F)CN2)nc2c1oc1ccc(Br)cc12` [Compound 512, 8-bromo-2-[(2S)-4,4-difluoropyrrolidin-2-yl][1]benzofuro[3,2-d]pyrimidin-4(3H)-one], for which the IC50 at CDC7 (setting [2]) was under 10 µM; on CDC7 (setting [3]), under 0.1 µM; in assay [1], under 10 µM; on CK2 it was under 10 µM.
